This note sets out measurements from PubChem BioAssay AID1259411 (Chemical Carcinogenesis Research Information System (CCRIS), 2018).

Structures are written as SMILES. Calls of active or inactive are those of the source. No rule for the calls is given here.

The subject of the data set is rodent carcinogenicity bioassays, tumor incidence. As to the kind of experiment: CCRIS carcinogenicity studies. In a few lines: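 Archive of carcinogenicity, mutagenicity, tumor promotion and tumor inhibition results drawn from journals, NCI reports and other sources, expert-reviewed; covers 1985-2011 and is no longer updated.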

On to `CC(CN1c2ccccc2Sc2ccccc21)N(C)C` (stereo not drawn), for which the carcinogen call was “inactive; negative” (Species: MOUSE, Strain/Sex: B6C3F1/FEMALE, Route: GAVAGE, Dose: 0, 3.75, 7.5, 15 MG/KG IN WATER 1/D 5 D/WK FOR 103 WK (STUDY DURATION: 106 WK), Dose: 0, 3.75, 7.5, 15 MG/KG IN WATER 1/D 5 D/WK FOR 103 WK (STUDY DURATION: 106 WK)); “inactive; negative” (Species: MOUSE, Strain/Sex: B6C3F1/MALE, Route: GAVAGE, Dose: 0, 11.25, 22.5, 45 MG/KG IN WATER 1/D 5 D/WK FOR 103 WK (STUDY DURATION: 106 WK), Dose: 0, 11.25, 22.5, 45 MG/KG IN WATER 1/D 5 D/WK FOR 103 WK (STUDY DURATION: 106 WK)); “inactive; negative” (Species: RAT, Strain/Sex: F344/FEMALE, Route: GAVAGE, Dose: 0, 8.3, 16.6, 33.3 MG/KG IN WATER 1/D 5 D/WK FOR 103 WK (STUDY DURATION: 106 WK), Dose: 0, 8.3, 16.6, 33.3 MG/KG IN WATER 1/D 5 D/WK FOR 103 WK (STUDY DURATION: 106 WK)); “inactive; negative” (Species: RAT, Strain/Sex: F344/MALE, Route: GAVAGE, Dose: 0, 8.3, 16.6, 33.3 MG/KG IN WATER 1/D 5 D/WK FOR 103 WK (STUDY DURATION: 106 WK), Dose: 0, 8.3, 16.6, 33.3 MG/KG IN WATER 1/D 5 D/WK FOR 103 WK (STUDY DURATION: 106 WK)).

Turning to `CC(=O)CN(CC(C)O)N=O` (stereo not drawn), the carcinogen call runs as follows: (Species: RAT, Strain/Sex: F344/FEMALE, Route: INTRAVESICULAR, Dose: 0, 2.5 MG IN 0.2 ML ETHANOL:DEIONIZED WATER (1:3) 2/WK FOR 22 WK (TOTAL DOSE 0.7 MMOL) (STUDY DURATION: LIFESPAN), Tumor Site: Type of Lesion: BLADDER: TUMOR, LIVER: TUMOR) “active; positive”; (Species: RAT, Strain/Sex: F344/FEMALE, Route: ORAL, Dose: 0, 55, 220 MG/L DRINKING WATER 5 D/WK FOR 40, 21 WK (TOTAL DOSE 220; 460 MG) (STUDY DURATION: LIFESPAN), Dose: 0, 55, 220 MG/L DRINKING WATER 5 D/WK FOR 40, 21 WK (TOTAL DOSE 220; 460 MG) (STUDY DURATION: LIFESPAN), Tumor Site: Type of Lesion: LIVER: CARCINOMA, ANGIOSARCOMA, LUNG: TUMOR, ESOPHAGUS: CARCINOMA, PAPILLOMA, NASAL CAVITY: TUMOR, Tumor Site: Type of Lesion: LIVER: CARCINOMA, ANGIOSARCOMA, LUNG: TUMOR, ESOPHAGUS: CARCINOMA, PAPILLOMA, NASAL CAVITY: TUMOR) “active; positive”.

In the case of `CC/C(=C(\c1ccc(O)cc1)c1ccc(OCCN(C)C)cc1)c1ccccc1`, where the note is “Species: RAT, Strain/Sex: SPRAGUE-DAWLEY/FEMALE, Route: DERMAL, Dose: 0, 20, 140, 1000 UG/KG/D FOR 101 WK (STUDY DURATION: 101 WK), Dose: 0, 20, 140, 1000 UG/KG/D FOR 101 WK (STUDY DURATION: 101 WK)”, the carcinogen call was “inactive; negative”.

On to `CN(CCCC(O)c1cccnc1)N=O` (stereo not drawn), for which the carcinogen call is, setting by setting: (Species: MOUSE, Strain/Sex: STRAIN-A/FEMALE, Route: INTRAPERITONEAL, Dose: 0, 10, 50 UMOL TOTAL DOSE ADMINISTERED IN SUBDOSES 3/WK FOR 7 WK (STUDY DURATION: 37 WK), Dose: 0, 10, 50 UMOL TOTAL DOSE ADMINISTERED IN SUBDOSES 3/WK FOR 7 WK (STUDY DURATION: 37 WK), Tumor Site: Type of Lesion: LUNG: TUMOR) “active; positive”; (Species: RAT, Strain/Sex: F344/MALE, Route: ORAL, Dose: 0, 5 PPM IN DRINKING WATER FOR DURATION OF STUDY (TOTAL DOSE: 0; 0.69 MMOL/KG) (STUDY DURATION: 112 WK), Dose: 0, 5 PPM IN DRINKING WATER FOR DURATION OF STUDY (TOTAL DOSE: 0; 0.69 MMOL/KG) (STUDY DURATION: 112 WK), Tumor Site: Type of Lesion: LUNG: ADENOCARCINOMA, ADENOSQUAMOUS CARCINOMA, EXOCRINE PANCREAS: ACINAR ADENOMA OR ACINAR ADENOCARCINOMA OR DUCTAL ADEN) “active; positive”.

As to `NC(=O)N(CCCO)N=O`, the carcinogen call (Species: RAT, Strain/Sex: F344/FEMALE, Route: GAVAGE, Dose: 0, 8 MG/ML (TOTAL DOSE 0; 0.9 MMOL) IN 2 ML ETHYL ACETATE AND CORN OIL (1:2) 2/WK FOR 40 WK (STUDY DURATION: LIFETIME), Dose: 0, 8 MG/ML (TOTAL DOSE 0; 0.9 MMOL) IN 2 ML ETHYL ACETATE AND CORN OIL (1:2) 2/WK FOR 40 WK (STUDY DURATION: LIFETIME), Tumor Site: Type of Lesion: THYROID: C-CELL TUMOR) was “active; positive”; the carcinogen call (Species: RAT, Strain/Sex: F344/FEMALE, Route: GAVAGE, Dose: 0, 8 MG/ML IN 0.2 ML ETHYL ACETATE AND CORN OIL 2/WK FOR 40 WK (STUDY DURATION: LIFESPAN), Tumor Site: Type of Lesion: THYROID: C-CELL TUMOR, UTERUS: TUMOR) was “active; positive”; the carcinogen call (Species: RAT, Strain/Sex: F344/FEMALE, Route: GAVAGE, Dose: 0, 16 MG/ML (TOTAL DOSE 0; 1.3 MMOL) IN 2 ML ETHYL ACETATE AND CORN OIL (1:2) 2/WK FOR 30 WK (STUDY DURATION: LIFETIME), Dose: 0, 16 MG/ML (TOTAL DOSE 0; 1.3 MMOL) IN 2 ML ETHYL ACETATE AND CORN OIL (1:2) 2/WK FOR 30 WK (STUDY DURATION: LIFETIME)) was “inactive; negative”; the carcinogen call (Species: RAT, Strain/Sex: F344/FEMALE, Route: GAVAGE, Dose: 0, 16 MG/ML IN 0.2 ML ETHYL ACETATE AND CORN OIL 2/WK FOR 30 WK (STUDY DURATION: LIFESPAN), Tumor Site: Type of Lesion: LIVER: TUMOR, FORESTOMACH: TUMOR, THYROID: C-CELL TUMOR, UTERUS: TUMOR, DUODENUM: TUMOR, Tumor Site: Type of Lesion: LIVER: TUMOR, FORESTOMACH: TUMOR, THYROID: C-CELL TUMOR, UTERUS: TUMOR, DUODENUM: TUMOR) was “active; positive”; the carcinogen call (Species: RAT, Strain/Sex: F344/MALE, Route: GAVAGE, Dose: 0, 8 MG/ML (TOTAL DOSE 0; 0.9 MMOL) IN 2 ML ETHYL ACETATE AND CORN OIL (1:2) 2/WK FOR 40 WK (STUDY DURATION: LIFETIME), Dose: 0, 8 MG/ML (TOTAL DOSE 0; 0.9 MMOL) IN 2 ML ETHYL ACETATE AND CORN OIL (1:2) 2/WK FOR 40 WK (STUDY DURATION: LIFETIME)) is “inactive; negative”; the carcinogen call (Species: RAT, Strain/Sex: F344/MALE, Route: GAVAGE, Dose: 0, 8 MG/ML IN 0.2 ML ETHYL ACETATE AND CORN OIL 2/WK FOR 40 WK (STUDY DURATION: LIFESPAN), Tumor Site: Type of Lesion: FORESTOMACH: TUMOR) was “active; positive”. Further, the carcinogen call is, setting by setting: (Species: RAT, Strain/Sex: F344/MALE, Route: GAVAGE, Dose: 0, 16 MG/ML (TOTAL DOSE 0; 1.3 MMOL) IN 2 ML ETHYL ACETATE AND CORN OIL (1:2) 2/WK FOR 30 WK (STUDY DURATION: LIFETIME), Dose: 0, 16 MG/ML (TOTAL DOSE 0; 1.3 MMOL) IN 2 ML ETHYL ACETATE AND CORN OIL (1:2) 2/WK FOR 30 WK (STUDY DURATION: LIFETIME)) “inactive; negative”; (Species: RAT, Strain/Sex: F344/MALE, Route: GAVAGE, Dose: 0, 16 MG/ML IN 0.2 ML ETHYL ACETATE AND CORN OIL 2/WK FOR 30 WK (STUDY DURATION: LIFESPAN), Tumor Site: Type of Lesion: LUNG: TUMOR, GLANDULAR STOMACH: TUMOR, SKIN: TUMOR, Tumor Site: Type of Lesion: LUNG: TUMOR, GLANDULAR STOMACH: TUMOR, SKIN: TUMOR) “active; positive”.

With `CCc1cccc2c3c([nH]c12)C(CC)(CC(=O)O)OCC3` (stereo not drawn), the carcinogen call is, setting by setting: (Species: MOUSE, Strain/Sex: CD-1/FEMALE, Route: ORAL, Dose: 0;3, 9, 15 MG/KG/D IN DIET FOR 78 WK (STUDY DURATION: 78 WK), Dose: 0;3, 9, 15 MG/KG/D IN DIET FOR 78 WK (STUDY DURATION: 78 WK)) “inactive; negative”; (Species: MOUSE, Strain/Sex: CD-1/MALE, Route: ORAL, Dose: 0, 3, 9, 15 MG/KG/D IN DIET FOR 78 WK (STUDY DURATION: 78 WK), Dose: 0, 3, 9, 15 MG/KG/D IN DIET FOR 78 WK (STUDY DURATION: 78 WK)) “inactive; negative”; (Species: RAT, Strain/Sex: STRAIN-CD/FEMALE, Route: ORAL, Dose: 0, 3, 9, 15 MG/KG/D IN DIET FOR 104 WK (STUDY DURATION: 104 WK), Dose: 0, 3, 9, 15 MG/KG/D IN DIET FOR 104 WK (STUDY DURATION: 104 WK)) “inactive; negative”; (Species: RAT, Strain/Sex: STRAIN-CD/MALE, Route: ORAL, Dose: 0, 3, 9, 15 MG/KG/D IN DIET FOR 104 WK (STUDY DURATION: 104 WK), Dose: 0, 3, 9, 15 MG/KG/D IN DIET FOR 104 WK (STUDY DURATION: 104 WK)) “inactive; negative”.

Consider `CO[C@H]1/C=C/O[C@@]2(C)Oc3c(C)c(O)c4c(O)c(c(C=NN5CCN(C)CC5)c(O)c4c3C2=O)NC(=O)/C(C)=C\C=C\[C@H](C)[C@H](O)[C@@H](C)[C@@H](O)[C@@H](C)[C@H](OC(C)=O)[C@@H]1C`, for which the carcinogen call (Species: MOUSE, Strain/Sex: C3F/FEMALE, Route: ORAL, Dose: 0.01, 0.03 0.06% IN DRINKING WATER WITH 0.05% SODIUM ASCORBATE FOR 60 WK, Tumor Site: Type of Lesion: LIVER: BENIGN TUMOR OR MALIGNANT TUMOR) is “active; positive”.

For the molecule `C=Cc1ccncc1`, the carcinogen call (Species: MOUSE, Strain/Sex: STRAIN-A/FEMALE, Route: INTRAPERITONEAL, Dose: 0, 10 UMOL IN 0.1 ML OLIVE OIL 3/WK FOR 20 DOSES (TOTAL DOSE: 200 UMOL) (STUDY DURATION: 27 WK)) was “inactive; negative”.
